Carcinogen call and TD50 data for seven molecules are collected here from PubChem BioAssay AID1745844 (Carcinogenic Potency Database (CPDB), 2022).

The structures appear in SMILES notation. Active and inactive are the calls of the source. The rule behind the calls is not given here.

The series relates to rodent lifetime carcinogenesis bioassay, tumor incidence TD50. Nature of the series: chronic cancer bioassays in animals – CPDB, compiled studies (AID 1745844).

Turning to `CBr`, the carcinogen call reads like this: (mouse, strain B6C3F1, females, inhaled, site: any site (literature study), lesion: several types, types named in the paper, dosed 75 weeks, study length 104 weeks) “negative (inactive)”; (mouse, strain B6C3F1, males, inhaled, site: any site (literature study), lesion: several types, types named in the paper, dosed 75 weeks, study length 104 weeks) “negative (inactive)”; (mouse, strain Crj:BDF1, females, inhaled, site: liver, lesion: hepatocellular adenoma, dosed 104 weeks, study length 105 weeks) “negative (inactive)”; (mouse, strain Crj:BDF1, females, inhaled, site: lung, lesion: alveolar/bronchiolar carcinoma, dosed 104 weeks, study length 105 weeks) “negative (inactive)”; (mouse, strain Crj:BDF1, males, inhaled, site: liver, lesion: hepatocellular adenoma, dosed 104 weeks, study length 105 weeks) “negative (inactive)”; (mouse, strain Crj:BDF1, males, inhaled, site: liver, lesion: hepatocellular carcinoma, dosed 104 weeks, study length 105 weeks) “negative (inactive)”. The carcinogen call is, setting by setting: (mouse, strain Crj:BDF1, males, inhaled, site: lung, lesion: alveolar/bronchiolar adenoma, dosed 104 weeks, study length 105 weeks) “negative (inactive)”; (mouse, strain Crj:BDF1, males, inhaled, site: lung, lesion: alveolar/bronchiolar carcinoma, dosed 104 weeks, study length 105 weeks) “negative (inactive)”; (rat, strain F344/DuCrj, females, inhaled, site: liver, lesion: hepatocellular adenoma, dosed 104 weeks, study length 105 weeks) “negative (inactive)”; (rat, strain F344/DuCrj, females, inhaled, site: liver, lesion: hepatocellular carcinoma, dosed 104 weeks, study length 105 weeks) “negative (inactive)”; (rat, strain F344/DuCrj, males, inhaled, site: liver, lesion: hepatocellular adenoma, dosed 104 weeks, study length 105 weeks) “negative (inactive)”; (rat, strain F344/DuCrj, males, inhaled, site: liver, lesion: hepatocellular carcinoma, dosed 104 weeks, study length 105 weeks) “negative (inactive)”. The carcinogen call reads like this: (rat, strain Wistar-random, females, inhaled, site: any site (literature study), lesion: malignant tumor, dosed 129 weeks, study length 129 weeks) “negative (inactive)”; (rat, strain Wistar-random, females, inhaled, site: any site (literature study), lesion: one or several types, types not named, dosed 129 weeks, study length 129 weeks) “negative (inactive)”; (rat, strain Wistar-random, females, inhaled, site: liver, lesion: cholangiocarcinoma, dosed 129 weeks, study length 129 weeks) “negative (inactive)”; (rat, strain Wistar-random, females, inhaled, site: nasal cavity, olfactory epithelium, lesion: one or several types, types not named, dosed 129 weeks, study length 129 weeks) “negative (inactive)”; (rat, strain Wistar-random, females, inhaled, site: nasal cavity, respiratory epithelium, lesion: one or several types, types not named, dosed 129 weeks, study length 129 weeks) “negative (inactive)”; (rat, strain Wistar-random, males, inhaled, site: any site (literature study), lesion: malignant tumor, dosed 128 weeks, study length 128 weeks) “negative (inactive)”. Besides, the carcinogen call by setting is: (rat, strain Wistar-random, males, inhaled, site: any site (literature study), lesion: one or several types, types not named, dosed 128 weeks, study length 128 weeks) “negative (inactive)”; (rat, strain Wistar-random, males, inhaled, site: liver, lesion: cholangiocarcinoma, dosed 128 weeks, study length 128 weeks) “negative (inactive)”; (rat, strain Wistar-random, males, inhaled, site: liver, lesion: hepatocellular carcinoma, dosed 128 weeks, study length 128 weeks) “negative (inactive)”; (rat, strain Wistar-random, males, inhaled, site: liver, lesion: neoplastic nodule, dosed 128 weeks, study length 128 weeks) “negative (inactive)”; (rat, strain Wistar-random, males, inhaled, site: nasal cavity, olfactory epithelium, lesion: one or several types, types not named, dosed 128 weeks, study length 128 weeks) “negative (inactive)”; (rat, strain Wistar-random, males, inhaled, site: nasal cavity, respiratory epithelium, lesion: fibrosarcoma, dosed 128 weeks, study length 128 weeks) “negative (inactive)”. For the same molecule, the carcinogen call runs as follows: (rat, strain Wistar-random, males, inhaled, site: nasal cavity, respiratory epithelium, lesion: osteosarcoma, dosed 128 weeks, study length 128 weeks) “negative (inactive)”; (rat, strain Wistar-random, males, inhaled, site: nasal cavity, respiratory epithelium, lesion: squamous-cell carcinoma, dosed 128 weeks, study length 128 weeks) “negative (inactive)”; (rat, strain Wistar-random, males, inhaled, site: pituitary gland, lesion: hemorrhagic tumor, dosed 128 weeks, study length 128 weeks) “negative (inactive)”. For the same molecule, the TD50 was 23900 mg/kg/day (inactive) (mouse, strain Crj:BDF1, females, inhaled, site: liver, lesion: hepatocellular carcinoma, dosed 104 weeks, study length 105 weeks); 6420 mg/kg/day (inactive) (mouse, strain Crj:BDF1, females, inhaled, site: lung, lesion: alveolar/bronchiolar adenoma, dosed 104 weeks, study length 105 weeks); 845 mg/kg/day (inactive) (mouse, strain Crj:BDF1, females, inhaled, site: lymph node, lesion: malignant lymphoma, dosed 104 weeks, study length 105 weeks); 805 mg/kg/day (inactive) (rat, strain F344/DuCrj, females, inhaled, site: adrenal gland, lesion: pheochromocytoma, dosed 104 weeks, study length 105 weeks); 40.8 mg/kg/day (inactive) (rat, strain F344/DuCrj, males, inhaled, site: peritoneum, lesion: mesothelioma, malignant, dosed 104 weeks, study length 105 weeks); 31.8 mg/kg/day (inactive) (rat, strain F344/DuCrj, males, inhaled, site: pituitary gland, lesion: adenoma, dosed 104 weeks, study length 105 weeks). In addition, the TD50 (rat, strain Wistar-random, females, inhaled, site: liver, lesion: neoplastic nodule, dosed 129 weeks, study length 129 weeks) was 2240 mg/kg/day (inactive).

For `CCC[CH2][Sn]([CH2]CCC)([CH2]CCC)[O][Sn]([CH2]CCC)([CH2]CCC)[CH2]CCC`, the TD50 worked out at 1.79 mg/kg/day (rat, strain Wistar, females, in feed, site: adrenal medulla, lesion: pheochromocytoma, dosed 106 weeks, study length 106 weeks); 3.73 mg/kg/day (rat, strain Wistar, females, in feed, site: pituitary gland, anterior, lesion: one or several types, types not named, dosed 106 weeks, study length 106 weeks); 1.93 mg/kg/day (rat, strain Wistar, males, in feed, site: adrenal medulla, lesion: pheochromocytoma, dosed 106 weeks, study length 106 weeks); 1.9 mg/kg/day (rat, strain Wistar, males, in feed, site: pituitary gland, anterior, lesion: one or several types, types not named, dosed 106 weeks, study length 106 weeks).

Consider `CCCN(CCC)S(=O)(=O)c1ccc(C(=O)O)cc1`, for which the TD50 (mouse, strain B6C3F1, females, by gavage, site: any site (literature study), lesion: several types, types named in the paper, dosed 103 weeks, study length 104 weeks) came to 498 mg/kg/day; the TD50 (mouse, strain B6C3F1, females, by gavage, site: liver, lesion: hepatocellular adenoma + hepatocellular carcinoma + neoplastic nodule, dosed 103 weeks, study length 104 weeks) is 540 mg/kg/day; the TD50 (mouse, strain B6C3F1, females, by gavage, site: liver, lesion: hepatocellular adenoma + hepatocellular carcinoma, dosed 103 weeks, study length 104 weeks) was 540 mg/kg/day; the TD50 (mouse, strain B6C3F1, females, by gavage, site: liver, lesion: hepatocellular adenoma, dosed 103 weeks, study length 104 weeks) is 561 mg/kg/day; the TD50 (mouse, strain B6C3F1, females, by gavage, site: lung, lesion: alveolar/bronchiolar adenoma + alveolar/bronchiolar carcinoma, dosed 103 weeks, study length 104 weeks) was 1980 mg/kg/day; the TD50 (mouse, strain B6C3F1, males, by gavage, site: any site (literature study), lesion: several types, types named in the paper, dosed 103 weeks, study length 104 weeks) is 276 mg/kg/day. Besides, the TD50 by setting is: (mouse, strain B6C3F1, males, by gavage, site: liver, lesion: hepatocellular adenoma + hepatocellular carcinoma + neoplastic nodule, dosed 103 weeks, study length 104 weeks) 731 mg/kg/day; (mouse, strain B6C3F1, males, by gavage, site: lung, lesion: alveolar/bronchiolar adenoma + alveolar/bronchiolar carcinoma, dosed 103 weeks, study length 104 weeks) 2320 mg/kg/day; (mouse, strain B6C3F1, males, by gavage, site: subcutaneous tissue, lesion: fibroma, dosed 103 weeks, study length 104 weeks) 2130 mg/kg/day (inactive); (rat, strain Fischer 344, females, by gavage, site: any site (literature study), lesion: several types, types named in the paper, dosed 103 weeks, study length 104 weeks) 1540 mg/kg/day (inactive); (rat, strain Fischer 344, females, by gavage, site: liver, lesion: hepatocellular adenoma + hepatocellular carcinoma + neoplastic nodule, dosed 103 weeks, study length 104 weeks) 1790 mg/kg/day; (rat, strain Fischer 344, males, by gavage, site: any site (literature study), lesion: several types, types named in the paper, dosed 103 weeks, study length 104 weeks) 296 mg/kg/day. Besides, the TD50 (rat, strain Fischer 344, males, by gavage, site: testis, lesion: interstitial-cell adenoma, bilateral + interstitial-cell adenoma, dosed 103 weeks, study length 104 weeks) was 212 mg/kg/day (inactive).

As for `CCCc1c(OCCCCc2nn[nH]n2)ccc(C(C)=O)c1O`, the TD50 (mouse, strain B6C3F1, females, in feed, site: liver, lesion: hepatocellular adenoma, dosed 104 weeks, study length 104 weeks) was 369 mg/kg/day; the TD50 (mouse, strain B6C3F1, females, in feed, site: liver, lesion: hepatocellular carcinoma, dosed 104 weeks, study length 104 weeks) is 112 mg/kg/day; the TD50 (mouse, strain B6C3F1, males, in feed, site: liver, lesion: hepatocellular adenoma, dosed 104 weeks, study length 104 weeks) was found to be 2740 mg/kg/day; the TD50 (mouse, strain B6C3F1, males, in feed, site: liver, lesion: hepatocellular carcinoma, dosed 104 weeks, study length 104 weeks) came out at 426 mg/kg/day.

For the molecule `CCC(C)[C@H]1O[C@]2(CC[C@@H]1C)CC1C[C@@H](C/C=C(\C)[C@@H](O[C@H]3C[C@H](OC)[C@@H](OC4C[C@H](OC)[C@@H](O)[C@H](C)O4)[C@H](C)O3)[C@@H](C)/C=C/C=C3\CO[C@@H]4[C@H](O)C(C)=C[C@@H](C(=O)O1)[C@]34O)O2` (stereo partly specified) (tested in a mixture with another compound), the carcinogen call (rat, strain Wistar, males, in feed, site: forestomach, lesion: one or several types, types not named, dosed 52 weeks, study length 52 weeks) is “negative (inactive)”.

As for `COC1=CC(=O)C[C@@H](C)[C@]12Oc1c(Cl)c(OC)cc(OC)c1C2=O`, the carcinogen call is “negative (inactive)” (hamster, strain Syrian Golden, females, in feed, site: liver, lesion: cholangiocarcinoma, dosed 97 weeks, study length 101 weeks); “negative (inactive)” (hamster, strain Syrian Golden, males, in feed, site: liver, lesion: one or several types, types not named, dosed 123 weeks, study length 127 weeks); “negative (inactive)” (mouse, strain Swiss, females, in feed, site: liver, lesion: hemangioma, dosed 115 weeks, study length 115 weeks); “negative (inactive)” (mouse, strain Swiss, females, in feed, site: lung, lesion: one or several types, types not named, dosed 115 weeks, study length 115 weeks); “negative (inactive)” (mouse, strain Swiss, males, in feed, site: liver, lesion: hemangioma, dosed 115 weeks, study length 115 weeks); “negative (inactive)” (mouse, strain Swiss, males, in feed, site: lung, lesion: one or several types, types not named, dosed 115 weeks, study length 115 weeks). Moreover, the TD50 is, setting by setting: (mouse, strain Swiss albino, females, by gavage, site: mammary gland, lesion: infiltrating duct carcinoma, dosed 52 weeks, study length 52 weeks) 13.8 mg/kg/day; (mouse, strain Swiss, males, in feed, site: liver, lesion: hepatoma, dosed 115 weeks, study length 115 weeks) 1660 mg/kg/day.

Take `Cc1cccc(Nc2cc(Cl)nc(SCC(=O)NCCO)n2)c1C`: the TD50 is, setting by setting: (mouse, strain CSb, females, in feed, site: liver, lesion: hepatocellular carcinoma, dosed 82 weeks, study length 82 weeks) 44.6 mg/kg/day; (rat, strain Fischer 344, males, in feed, site: liver, lesion: hepatocellular carcinoma, dosed 75 weeks, study length 82 weeks) 6.49 mg/kg/day.
